Test results reported in patent US20060281719A1, “Oestrogen-17-sulphamates as inhibitors of steroid sulphatase” (priority 2000, published 2006).
Read-outs that look alike come from different tables or passages of the source.

What was measured:
Plate assay % inhibition = type: cell-based; conditions: -ve % means stimulation
steroid sulphatase (STS) = biological target: T1, steroid sulphatase (STS) (Homo sapiens, UniProt P08842); conditions: compared with EMATE; cited from earlier work
T1 sequence (P08842 22-583): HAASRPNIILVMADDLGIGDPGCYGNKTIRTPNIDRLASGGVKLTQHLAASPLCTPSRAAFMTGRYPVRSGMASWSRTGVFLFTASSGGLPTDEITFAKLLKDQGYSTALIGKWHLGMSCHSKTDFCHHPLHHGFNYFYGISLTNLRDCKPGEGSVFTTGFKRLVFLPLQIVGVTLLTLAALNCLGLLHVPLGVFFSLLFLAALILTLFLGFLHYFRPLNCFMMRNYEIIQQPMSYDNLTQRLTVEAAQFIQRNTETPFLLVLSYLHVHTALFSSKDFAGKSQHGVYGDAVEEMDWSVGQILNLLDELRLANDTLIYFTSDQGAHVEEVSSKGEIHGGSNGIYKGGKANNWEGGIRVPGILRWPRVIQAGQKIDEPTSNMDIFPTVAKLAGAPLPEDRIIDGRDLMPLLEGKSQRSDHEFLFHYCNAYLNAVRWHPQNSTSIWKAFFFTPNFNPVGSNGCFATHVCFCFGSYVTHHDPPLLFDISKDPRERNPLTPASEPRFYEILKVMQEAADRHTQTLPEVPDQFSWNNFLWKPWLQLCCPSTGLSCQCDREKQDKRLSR

[1] = cited from earlier work
[2] = 48% v/v aq. Ethanol, literature value; cited from earlier work
[3] = pKa determination by potentiometric titration; conditions: water/methanol (1:1)
Procedure: (§1) A 5 mM solution of 4,4′-dihydroxybenzophenone or bis-(4-hydroxyphenyl)methane in water/methanol (1:1) at room temperature was prepared and its pH read (WPA Linton Cambridge UK, CCMD625 pH meter). The titrant (50 mM KOH) was then added in equal portions. The pH was recorded after each addition when equilibrium has been reached (after stirring).

[4] = in vivo; cited from earlier work
[5] = biological target: T2, oestrone sulphatase (E1-STS) (Homo sapiens, UniProt P08842); assay: Inhibition of steroid sulphatase activity in placental microsomes; type: biochemical; set-up: from tissue; host or cells: human term placenta (microsomal preparation)
T2 sequence (P08842 22-583): T1 sequence (P08842 22-583)
Procedure: Inhibition of Steroid Sulphatase Activity in Placental Microsomes
Sulphatase-positive human placenta from normal term pregnancies are thoroughly minced with scissors and washed once with cold phosphate buffer (pH 7.4, 50 mM) then re-suspended in cold phosphate buffer (5 ml/g tissue). Homogenisation is accomplished with an Ultra-Turrax homogeniser, using three 10 second bursts separated by 2 minute cooling periods in ice. Nuclei and cell debris are removed by centrifuging (4° C.) at 2000 g for 30 minutes and portions (2 ml) of the supernatant are stored at 20° C.
Incubations (1 ml) are carried out using a protein concentration of 100 mg/ml, substrate concentration of 20 mM [6,7-3H]oestrone-3-sulphate (specific activity 60 Ci/mmol from New England Nuclear, Boston, Mass., U.S.A.) and an incubation time of 20 minutes at 37° C. If necessary eight concentrations of compounds are employed: 0 (i.e. control); 0.05 mM; 0.1 mM; 0.2 mM; 0.4 mM; 0.6 mM; 0.8 mM; 1.0 mM. After incubation each sample is cooled and the medium (1 ml) was pipetted into separate tubes containing [14C]oestrone (7×10^3 dpm) (specific activity 97 Ci/mmol from Amersham International Radiochemical Centre, Amersham, U.K.). The mixture is shaken thoroughly for 30 seconds with toluene (5 ml). […] A portion (2 ml) of the organic phase was removed, evaporated and the 3H and 14C content of the residue determined by scintillation spectrometry. The mass of oestrone-3-sulphate hydrolysed is calculated from the 3H counts obtained (corrected for the volumes of the medium and organic phase used, and for recovery of [14C]oestrone added) and the specific activity of the substrate.

[6] = biological target: T3, dehydroepiandrosterone sulphatase (DHA-STS) (Rattus norvegicus, UniProt P15589); conditions: administered either orally or subcutaneously; cited from earlier work
T3 construct: host or cells: rat liver
T3 sequence (P15589 20-577): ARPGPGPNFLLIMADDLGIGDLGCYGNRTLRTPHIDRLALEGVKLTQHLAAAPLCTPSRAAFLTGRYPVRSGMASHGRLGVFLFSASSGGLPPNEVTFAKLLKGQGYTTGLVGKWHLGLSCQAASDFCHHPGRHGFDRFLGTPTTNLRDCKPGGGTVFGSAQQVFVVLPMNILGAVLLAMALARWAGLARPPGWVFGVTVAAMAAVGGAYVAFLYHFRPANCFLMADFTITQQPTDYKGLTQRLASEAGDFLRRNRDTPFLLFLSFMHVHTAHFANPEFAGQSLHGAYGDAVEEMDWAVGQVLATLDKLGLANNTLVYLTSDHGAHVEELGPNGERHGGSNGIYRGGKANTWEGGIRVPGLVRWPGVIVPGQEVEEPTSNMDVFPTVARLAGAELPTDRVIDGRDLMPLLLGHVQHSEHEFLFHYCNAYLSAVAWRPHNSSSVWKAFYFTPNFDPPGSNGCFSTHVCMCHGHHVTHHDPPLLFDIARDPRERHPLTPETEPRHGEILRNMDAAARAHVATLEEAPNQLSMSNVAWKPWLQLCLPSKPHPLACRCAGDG

[7] = biological target: T2, oestrone sulphatase (E1-STS); conditions: 0.1 mM; cited from earlier work
liver E1-STS [8] = biological target: T4, liver E1-STS (Rattus norvegicus, UniProt P15589); conditions: administered either orally or subcutaneously; cited from earlier work
T4 construct: samples of liver tissue were removed and immediately frozen on solid carbon dioxide; from tissue; host or cells: rat liver (female Wistar rats, dosed p.o.)
T4 sequence (P15589 20-577): T3 sequence (P15589 20-577)

liver E1-STS [9] = biological target: T4, liver E1-STS; assay: In vivo inhibition of rat liver steroid sulphatase
Procedure: Inhibition of Oestrone Sulphatase Activity In Vivo
The compounds of the present invention may be studied using an animal model, in particular in ovariectomised rats. In this model compounds which are oestrogenic stimulate uterine growth.
The compound (0.1 mg/Kg/day for five days) is administered orally to rats with another group of animals receiving vehicle only (propylene glycol). At the end of the study samples of liver tissue were obtained and oestrone sulphatase activity assayed using 3H oestrone sulphate as the substrate as previously described (see PCT/GB95/02638).
For in vivo studies, female Wistar rats (Harlan Olac, Bicester, Oxon, United Kingdom) were used. Groups of rats, with three rats in each group for each experiment, were treated p.o. with vehicle (propylene glycol) or drug (1 mg and 10 mg/kg) with animals receiving a single dose. Animals were killed, using an approved procedure, 24 h after drug administration to assess the extent of steroid sulphatase inhibition. For this, samples of liver tissue were removed and immediately frozen on solid carbon dioxide and stored at −20° C. until assayed.

[10] = biological target: T2, oestrone sulphatase (E1-STS); assay: Inhibition of steroid sulphatase (E1-STS) activity in intact MCF-7 breast cancer cells; type: cell-based

Procedure for physchem: as §1

**Q.** Which “Plate assay % inhibition” value (Plate assay % inhibition; 0.1 μM) does the source give for `COc1cc2c(cc1OS(N)(=O)=O)CC[C@@H]1[C@@H]2CC[C@]2(C)C(=O)CC[C@@H]12` [Compound 2-MeOEMATE, 2-methoxyoestrone-3-O-sulphamate, reference compound] here?
**A.** 15%

**Q.** What about the “Plate assay % inhibition” value (Plate assay % inhibition; 1 μM) of the same molecule?
**A.** 42%

**Q.** And the “Plate assay % inhibition” value (Plate assay % inhibition; 10 μM)?
**A.** 88%

**Q.** What about the “potency as a steroid sulphatase inhibitor” value (steroid sulphatase (STS)) of the same molecule?
**A.** equipotent with EMATE

**Q.** What about the oestrogenicity ([1]; rat, in vivo) of the same molecule?
**A.** devoid of oestrogenicity

**Q.** What does the source list for `Oc1ccc(Cc2ccc(O)cc2)cc1` [bis-(4-hydroxyphenyl)methane]?
**A.** pKa (physchem): 11 ± 0.13; pKa [2]: 11.22

**Q.** Which pKa [3] does the source give for `O=C(c1ccc(O)cc1)c1ccc(O)cc1` [4,4′-dihydroxybenzophenone] here?
**A.** 9.11 ± 0.24

**Q.** With `C[C@]12CC[C@@H]3c4ccc(OS(=O)(=O)O)cc4CC[C@H]3[C@@H]1CCC2=O` [Compound E1S, oestrone sulphate] as the molecule, how does the half-life in blood [4] read?
**A.** 10 to 12 h

**Q.** For `CC12CCC3c4ccc(OS(N)(=O)=O)cc4CCC3C1CCC2=O` (stereo not drawn) [EMATE, oestrone-3-sulphamate], which inhibition at 1 µM ([5]; 1 μM, -ve % means stimulation, read-out: Placental Microcsomes % inhibition) is on record?
**A.** 98%

**Q.** What about the “inhibition of rat liver DHA-STS activity” value [6] of the same molecule?
**A.** 99%

**Q.** And the “oral uterotrophic activity relative to oestradiol” value ([1]; rats, oral)?
**A.** 100 times

**Q.** And the “inhibition of E1-STS activity in intact MCF-7 cells” value [7]?
**A.** more than 99%

**Q.** And the “inhibition of rat liver E1-STS activity” value (liver E1-STS [8])?
**A.** 99%

**Q.** Which results are given for `NS(=O)(=O)Oc1ccc(C(=O)c2ccc(OS(N)(=O)=O)cc2)cc1` [Compound 3, Benzophenone-4,4′-O,O-bis-sulphamate]?
**A.** % Inhibition of E1-STS activity in placental microsomes ([5]; 10 μM): 98.17 ± 0.05%; % Inhibition of E1-STS activity in placental microsomes ([5]; 10 μM, listed as BENZOMATE): > 98%; % Inhibition of E1-STS activity in placental microsomes ([5]; 50 µM): 99.03 ± 0.05%; % Inhibition of E1-STS activity in placental microsomes ([5]; 100 µM): 99.2 ± 0.0%; inhibition of rat liver E1-STS activity (liver E1-STS [9]; 24 h after a single oral dose of 1 mg/kg): 84%; inhibition of rat liver E1-STS activity (liver E1-STS [9]; 24 h after a single oral dose of 10 mg/kg): 93%; % Inhibition of E1-STS activity in MCF-7 cells ([10]; 0.1 μM): 71.41 ± 6.85%; % Inhibition of E1-STS activity in MCF-7 cells ([10]; 0.1 μM, listed as BENZOMATE): > 70%; % Inhibition of E1-STS activity in MCF-7 cells ([10]; 1 μM): 95.64 ± 2.07%; % Inhibition of E1-STS activity in MCF-7 cells ([10]; 10 μM): 98.69 ± 2.82%
